Test results reported in patent US4772586A, “Novel derivatives of arginine vasopressin antagonists” (Medical College of Ohio, priority 1986, dated 1988).
*1 amine or outer side, *2 acyl side, *3 side chain or, on linkers, in order; H or OH if unused. Where a SMILES comes first, the peptide text is derived from it. Bridges are numbered along the chain shown (N, C = ends). [ ]: non-standard residue; d: D form. The star is where a group is joined. Ethylenediamine = C(CN[*:2])N[*:1]; X1 = O=C(CC1(S[*:2])CCCCC1)[*:1]; NHCH2CH2OH = OCCN*; NHBu = CCCCN*

Experiments:
[1] = system: antidiuretic response to arginine vasopressin; experiment: Antagonism of the antidiuretic response to arginine vasopressin (Anti-ADH); assay type: in vivo, rats; conditions: for Anti-ADH Potency pA2: estimated in vivo pA2
Experimental: Activity as antidiuretic agonists was determined by intravenous injection of the compounds being evaluated in ethanol-anesthesized water-loaded rats in accordance with Sawyer, Endocrinology, vol. 63 (1958) at 694. Antagonism of the antidiuretic response to subsequent injections of arginine vasopressin was tested by the method of Sawyer et al., Science, vol. 212 (1981) at 49.
(§1) Antagonistic potencies were determined and expressed as "effective doses" and pA2 values. The "effective dose" is defined as the dose (in nanomoles per kilogram) that reduces the response seen from 2x units of agonist injected 20 min after the dose of antagonist to the response with 1x units of agonist. Estimated in vivo "pA2 " values represent the negative logarithms of the effective doses, divided by the estimated volume of distribution (67 ml/kg).

[2] = system: vasopressor response to arginine vasopressin; experiment: Antagonism to the vasopressor response (Anti-VP); assay type: in vivo; conditions: estimated in vivo pA2
Experimental: Antagonism to the vasopressor response was estimated in accordance with Dyckes et al., J. Med. Chem., vol. 17 (1974) at 969. The values are expressed as pA2 values, defined as in Schild et al., Br. J. Pharmacol., vol. 2 (1947) at 189.
as §1

Row | SMILES | Anti-ADH Potency pA2 ([1]; Table 2) | Anti-VP Potency pA2 ([2]; Table 2) | Anti-ADH Potency pA2 ([1]; Table 4) | Anti-VP Potency pA2 ([2]; Table 4, ^+ = mixed) | further results
1 | CC[C@H](C)[C@@H]1NC(=O)[C@H](Cc2ccccc2)NC(=O)[C@@H](Cc2ccccc2)NC(=O)CC2(CCCCC2)SSC[C@@H](C(=O)N2CCC[C@H]2C(=O)N[C@@H](CCCNC(=N)N)C(=O)N[C@H](C)C(N)=O)NC(=O)[C@H](CC(N)=O)NC1=O [D-Ala(NH2), [1-(beta-mercapto-beta,beta-cyclopentamethylenepropionic acid), 2-D-phenylalanine, 4-isoleucine, 9-D-alaninamide]-arginine vasopressin] ([dF]FINCPR[dA]-NH2; linker N-5 via X1) | 7.38 ± 0.08 | 7.55 ± 0.05 |  |  | 
2 | CC[C@H](C)[C@@H]1NC(=O)[C@H](Cc2ccccc2)NC(=O)[C@@H](Cc2ccccc2)NC(=O)CC2(CCCCC2)SSC[C@@H](C(=O)N2CCC[C@H]2C(=O)N[C@@H](CCCNC(=N)N)C(=O)N[C@@H](CO)C(N)=O)NC(=O)[C@H](CC(N)=O)NC1=O [Ser(NH2), [1-(beta-mercapto-beta,beta-cyclopentamethylenepropionic acid), 2-D-phenylalanine, 4-isoleucine, 9-serinamide]-arginine vasopressin] ([dF]FINCPRS-NH2; linker N-5 via X1) | 8.10 ± 0.07 | 8.10 ± 0.08 |  |  | 
3 | CC[C@H](C)[C@@H]1NC(=O)[C@H](Cc2ccccc2)NC(=O)[C@@H](Cc2ccccc2)NC(=O)CC2(CCCCC2)SSC[C@@H](C(=O)N2CCC[C@H]2C(=O)N[C@@H](CCCNC(=N)N)C(=O)N[C@H](C(N)=O)[C@@H](C)O)NC(=O)[C@H](CC(N)=O)NC1=O [Thr(NH2), [1-(beta-mercapto-beta,beta-cyclopentamethylenepropionic acid), 2-D-phenylalanine, 4-isoleucine, 9-threoinamide]-arginine vasopressin] ([dF]FINCPRT-NH2; linker N-5 via X1) | 7.39 ± 0.04 | 7.64 ± 0.11 |  |  | 
4 | CC[C@H](C)[C@@H]1NC(=O)[C@H](Cc2ccccc2)NC(=O)[C@@H](Cc2ccccc2)NC(=O)CC2(CCCCC2)SSC[C@@H](C(=O)N2CCC[C@H]2C(=O)N[C@@H](CCCNC(=N)N)C(=O)NCC(=O)NCCN)NC(=O)[C@H](CC(N)=O)NC1=O [[1-(beta-mercapto-beta,beta-cyclopentamethylenepropionic acid), 2-D-phenylalanine, 4-isoleucine, 9-glycine-N-(beta-amino)ethylamide]-arginine vasopressin] ([dF]FINCPRG-Ethylenediamine; linker N-5 via X1) |  |  | 8.10 ± 0.10 | 7.58 ± 0.07 | 
5 | CC[C@H](C)[C@@H]1NC(=O)[C@H](Cc2ccccc2)NC(=O)[C@@H](Cc2ccccc2)NC(=O)CC2(CCCCC2)SSC[C@@H](C(=O)N2CCC[C@H]2C(=O)N[C@@H](CCCNC(=N)N)C(=O)NCC(=O)NC)NC(=O)[C@H](CC(N)=O)NC1=O [[1-(beta-mercapto-beta,beta-cyclopentamethylenepropionic acid), 2-D-phenylalanine, 4-isoleucine, 9-glycine-N-methylamide]-arginine vasopressin] ([dF]FINCPRG-NHMe; linker N-5 via X1) |  |  | 8.07 ± 0.07 | 6.22 | 
6 | CCCCNC(=O)[C@H](CCCNC(=N)N)NC(=O)[C@@H]1CCCN1C(=O)[C@@H]1CSSC2(CCCCC2)CC(=O)N[C@H](Cc2ccc(OCC)cc2)C(=O)N[C@@H](Cc2ccccc2)C(=O)N[C@@H]([C@@H](C)CC)C(=O)N[C@@H](CC(N)=O)C(=O)N1 [[1-beta-mercapto-beta,beta-cyclopentamethylenepropionic acid), 2-(D-O-ethyl)tyrosine, 4-isoleucine, 8-arginine-N-(n-butyl)amide, 9-desglycinamide] vasopressin] ([dY](Et)FINCPR-NHBu; linker N-5 via X1) |  |  | 7.62 ± 0.09 | 7.51 ± 0.08 | 
7 | CC[C@H](C)[C@@H]1NC(=O)[C@H](Cc2ccccc2)NC(=O)[C@@H](Cc2ccccc2)NC(=O)CC2(CCCCC2)SSC[C@@H](C(=O)N2CCC[C@H]2C(=O)N[C@@H](CCCNC(=N)N)C(=O)NCC(=O)NCCO)NC(=O)[C@H](CC(N)=O)NC1=O [[1-(beta-mercapto-beta,beta-cyclopentamethylenepropionic acid), 2-D-phenylalanine, 4-isoleucine, 9-glycine-N-(beta-hydroxy)ethylamide]-arginine vasopressin] ([dF]FINCPRG-NHCH2CH2OH; linker N-5 via X1) |  |  | 8.20 ± 0.12 | 6.92 ± 0.07 | 
8 | CCOc1ccc(C[C@H]2NC(=O)CC3(CCCCC3)SSC[C@@H](C(=O)N3CCC[C@H]3C(=O)N[C@@H](CCCNC(=N)N)C(N)=O)NC(=O)[C@H](CC(N)=O)NC(=O)[C@H](C(C)C)NC(=O)[C@H](Cc3ccccc3)NC2=O)cc1 [desGly^9 d(CH2)5 [D-Tyr(Et)^2]VAVP, [1-(beta-mercapto-beta,beta-cyclopentamethylenepropionic acid), 2-D-(O-ethyl)tyrosine, 4-valine, 9-desglycine]-arginine vasopressin] ([dY](Et)FVNCPR-NH2; linker N-5 via X1) |  |  |  |  | Anti-ADH pA2 ([1]; Table 1, estimated in vivo pA2 = negative log of effective dose divided by volume of distribution (67 ml/kg)): 7.69 ± 0.08; Anti-VP pA2 ([2]; Table 1): 8.17 ± 0.04
9 | CCOc1ccc(C[C@H]2NC(=O)CC3(CCCCC3)SSC[C@@H](C(=O)N3CCC[C@H]3C(=O)N[C@@H](CCCNC(=N)N)C(=O)NCC(=O)NCCN)NC(=O)[C@H](CC(N)=O)NC(=O)[C@H]([C@@H](C)CC)NC(=O)[C@H](Cc3ccccc3)NC2=O)cc1 [[1-(beta-mercapto-beta,beta-cyclopentamethylenepropionic acid), 2-D-(O-ethyl)tyrosine, 4-isoleucine, 9-glycine-N-(beta-amino)ethylamide]-arginine vasopressin] ([dY](Et)FINCPRG-Ethylenediamine; linker N-5 via X1) |  |  | 7.86 ± 0.04 | 8.07 ± 0.03 | 
10 | CC[C@H](C)[C@@H]1NC(=O)[C@H](Cc2ccccc2)NC(=O)[C@@H](Cc2ccccc2)NC(=O)CC2(CCCCC2)SSC[C@@H](C(=O)N2CCC[C@H]2C(=O)N[C@@H](CCCNC(=N)N)C(=O)N[C@H](C(N)=O)C(C)C)NC(=O)[C@H](CC(N)=O)NC1=O [Val(NH2), [1-(beta-mercapto-beta,beta-cyclopentamethylenepropionic acid), 2-D-phenylalanine, 4-isoleucine, 9-valinamide]-arginine vasopressin] ([dF]FINCPRV-NH2; linker N-5 via X1) | 8.11 ± 0.11 | 7.66 ± 0.10 |  |  | 
11 | CCCCNC(=O)CNC(=O)[C@H](CCCNC(=N)N)NC(=O)[C@@H]1CCCN1C(=O)[C@@H]1CSSC2(CCCCC2)CC(=O)N[C@H](Cc2ccccc2)C(=O)N[C@@H](Cc2ccccc2)C(=O)N[C@@H]([C@@H](C)CC)C(=O)N[C@@H](CC(N)=O)C(=O)N1 [[1-(beta-mercapto-beta,beta-cyclopentamethylenepropionic acid), 2-D-phenylalanine, 4-isoleucine, 9-glycine-N-(n-butyl)amide]-arginine vasopressin] ([dF]FINCPRG-NHBu; linker N-5 via X1) |  |  | 7.66 ± 0.05 | 6.80 ± 0.08 | 
